# Measured values reported in US20220079899A1, “COMPOSITIONS AND METHODS FOR TREATING OCULAR CONDITIONS” (The Regents of the University of California, priority 2019, published 2022).
# System: calcification in injured hearts of ABCC6-deficient mice
# Assay: Calcification after heart injury in a mouse model of PXE
# Assay type: in vivo
# Conditions: intraperitoneally 1 mcg/daily for 7 days, versus vehicle
# Description: FIGS. 1A and 1B show calcification in injured hearts in a mouse model of PXE treated with vehicle (A) or ARL67156 (B).
# ENPP1 inhibitors attenuate calcification in a mouse model of PXE. Mice genetically deficient in ABCC6 (the causative gene in PXE) were subjected to heart injury, and either (A) vehicle or (B) ARL67156 was administered (intraperitoneally 1 mcg/daily) for 7 days.
smiles,measurement,value
CCN(CC)c1ncnc2c1ncn2[C@@H]1O[C@H](COP(=O)(O)OP(=O)(O)C(Br)(Br)P(=O)(O)O)[C@@H](O)[C@H]1O [ARL67156],calcification in the injured region,significant attenuation of calcification
